According to patent publication US20250195553A1, “Use of Genipin-1-B-D-Gentiobioside in Preparation of Drug” (Guizhou Bailing Group Pharmaceutical Co., Ltd., priority 2023, published 2025):
Read-outs that look alike come from different tables or passages of the source.

Legend:
[1] = tested on: Mycoplasma Pneumoniae (MP); experiment: Mycoplasma pneumoniae-infected mouse pneumonia model: lung index; type: in vivo, BALB/C mice; set-up: First Batch Inhibition Rate: unit not given here
[2] = tested on: Mycoplasma Pneumoniae (MP); experiment: Pathological changes in lung tissue of MP-infected mice (HE staining); type: in vivo, BALB/C mice; set-up: Alveolitis Lesion Degree / Bronchial Damage / Histological Damage Degree: scale not given here; conditions: Azithromycin Group
Method: (§1) Fifty BALB/C mice, weighing 14±1 g, were randomly divided into five groups: a normal control group, a model control group, an azithromycin control group, a high-dose Genipin-1-β-D-gentiobioside group (75 mg/ml) with 15-minute nebulization, and a low-dose Genipin-1-β-D-gentiobioside group (37.5 mg/ml) with 15-minute nebulization. Each group consisted of 10 mice, with an equal number of males and females. Except for the normal control group, all mice were lightly anesthetized with isoflurane and infected intranasally with Mycoplasma Pneumoniae (50 μl per mouse) for three consecutive days. On the day of infection, each treatment group received nebulized medication once daily for four consecutive days, while the normal control group and model control group received nebulized saline under the same conditions. On the fifth day, the mice were weighed, sacrificed by cervical dislocation, and their lung tissues were dissected, weighed, and used to calculate the lung index and lung index inhibition rate; measure the levels of inflammatory factors in the lung tissue; measure the serum CRP levels; and conduct pathological examinations of the lung tissue. The results were statistically analyzed using the t-test for intergroup comparisons.
2.4 Pathological Changes in Mouse Lung Tissue (HE Staining Method)

[3] = tested on: Mycoplasma Pneumoniae (MP); experiment: Inflammatory factors in lung tissue of MP-infected mice (ELISA); type: in vivo, BALB/C mice; conditions: 42 mg/kg
Method: as §1, with “Fifty BALB/C mice, weighing 14±1 g, were randomly divided into five groups: a normal control group, a model control group, an azithromycin control group, a high-dose Genipin-1-β-D-gentiobioside group (75 mg/ml) with 15-minute nebulization, and a low-dose Genipin-1-β-D-gentiobioside group (37.5 mg/ml) with 15-minute nebulization.” left out
(1) Sample Collection and Storage: Tissue Homogenate Samples: After weighing, lung tissues were collected from 8 mice in each group and stored at −80° C. The MP Fastprep-24 5G Rapid Sample Preparation System was used to homogenize the tissues, followed by centrifugation at […] and 3000 r/min for 10 minutes using a low-temperature high-speed centrifuge. The supernatant was then aspirated, aliquoted, and stored at −80° C. for future use, avoiding repeated freeze-thaw cycles.
(2) The microplate, which had been equilibrated to room temperature, was removed from the sealed bag. Different concentrations of standards were added to the corresponding wells, with 50 μL per well. For experimental samples, 10 μL of sample was added to each well, followed by 40 μL of diluent. Except for the blank wells, 100 μL of HRP (Horseradish Peroxidase) was added to each well. The reaction wells were sealed with sealing tape and incubated at 37° C. for 1 hour. The plate was then washed with wash buffer four times. After the final wash, the plate was inverted and all residual liquid was patted dry on absorbent paper. 50 μL of both Substrate A and Substrate B were added to each well. The reaction wells were then sealed with sealing tape and incubated at 37° C. for 15 minutes. After that, 50 μL of stop solution was added to each well, and the absorbance at 450 nm was measured using a microplate reader within 15 minutes. The results were then calculated.

[4] = tested on: Human Coronavirus OC43 (HCoV-OC43); type: in vivo; conditions: 90 mg/kg administration by gavage
[5] = tested on: Human Coronavirus OC43 (HCoV-OC43); type: in vivo; conditions: mouse, in vivo
[6] = tested on: Human Respiratory Syncytial Virus (RSV); experiment: RSV viral load in mouse lung tissue (RT-PCR), nebulization; type: in vivo; conditions: dosage 82.5 (mg/ml), nebulization time 25 min
Method: […] Each group consisted of 10 mice, with an equal number of males and females. Except for the normal control group, all mice were lightly anesthetized with isoflurane and infected with respiratory syncytial virus (RSV) via intranasal administration, with each mouse receiving 35 μl of the virus. On the day of infection, the treatment groups began inhalation administration. Each group received nebulization for 25 minutes once daily for four consecutive days. The normal control group and the model control group received nebulized saline under the same conditions. On the fifth day, after weighing, the mice were sacrificed by cervical dislocation, and their lung tissues were dissected, weighed, and used to calculate the lung index and lung index inhibition rate. The lung tissues were also retained for virus load, pathological examination, and inflammatory factor detection. The results were statistically analyzed using the t-test for intergroup comparisons.
After dissecting the mice, the lung tissues were collected and stored in separate containers at −80° C. in a low-temperature freezer. The lung tissues were then removed from the −80° C. freezer and placed in a clean mortar. A small amount of liquid nitrogen was poured into the mortar, and the tissues were ground into powder using a pestle. The powder was collected in a 1.5 ml centrifuge tube, and 1 ml of TRIzol Reagent was immediately added. The tube was gently tapped at the bottom to mix the sample and ensure it was resuspended as soon as possible. The centrifuge tube was then placed horizontally at room temperature and incubated for 20 minutes. Next, it was centrifuged at 4° C. and 12,000 rpm for 10 minutes. The clear supernatant was transferred to a new 1.5 ml centrifuge tube, and 0.2 ml of chloroform was added. The tube was tightly capped, vigorously shaken for 15 seconds, and then incubated at room temperature for 2-3 minutes until the liquid separated into layers. After centrifuging at 4° C. and 12,000 rpm for 15 minutes, the transparent supernatant was carefully transferred to a new 1.5 ml centrifuge tube. Then, 0.5 ml of isopropanol was added, mixed well, and incubated at room temperature for 30 minutes. Following centrifugation at 4° C. and 12,000 rpm for 10 minutes, the supernatant was discarded. The precipitate was gently washed with 1 ml of 75% ethanol (to allow the white precipitate to float slightly), and then centrifuged at 4° C. and 7,500 rpm for 5 minutes. The supernatant was completely aspirated, and the RNA precipitate was briefly dried for 5-10 minutes. The precipitate was then dissolved in 20 μl of DEPC (Diethylpyrocarbonate)-treated water and stored in a −80° C. low-temperature freezer.
Treatment of Control Nucleic Acid: DEPC-H2O was used as a negative control. For the positive control, a series of four concentrations were prepared by gradient dilution at 10^7, 10^6, 10^5, and 10^4 copies/ml.
Reagent Preparation: Mix n×18 μl of RSV nucleic acid fluorescent PCR detection mixture, n×1 μl of internal control, and n×1 μl of RT-PCR enzyme (where n is the number of reaction tubes). Shake vigorously for a few seconds and centrifuge at 3000 rpm for a few seconds.
Sample Addition: Dispense 20 μl of the above mixture into each PCR tube. Then, add 5 μl of sample nucleic acid extract, DEPC-H2O, and positive control to the respective PCR tubes. Tightly close the tube caps, centrifuge for a few seconds to ensure all liquids are at the bottom, and immediately proceed with PCR amplification.
PCR Amplification: Place the reaction tubes in a quantitative fluorescent PCR instrument. Set the cycling parameters as follows: 45° C. for 10 minutes; 95° C. for 15 minutes; then 40 cycles of 95° C. for 15 seconds→60° C. for 60 seconds. Single-point fluorescent detection is performed at 60° C., with a reaction volume of 25 μl.
Fluorescent Channel Selection: Select the FAM and HEX/VIC/JOE channels for detection. […]

[7] = tested on: Lipopolysaccharide (LPS)-induced pneumonia model in mice; experiment: LPS-induced pneumonia model in mice, intravenous injection: lung index; type: in vivo, ICR mice; conditions: 50 mg/kg i.v. once daily 2 days
Method: (§2) Sixty healthy mice, weighing 18˜20 g, half male and half female, were selected and randomly grouped after stratification by weight; they were divided into a normal control group, a model control group, three Genipin-1-β-D-gentiobioside dose groups (150 mg/kg/d, 75 mg/kg/d, 37.5 mg/kg/d), and a positive control drug Sivelestat Sodium 50 mg/kg/d group, with 10 mice in each group, half male and half female. After grouping, each treatment group was administered intravenously at 20 ml/kg once daily for 2 consecutive days, while the normal control group and model control group were injected with physiological saline. One hour after the second dose, except for the normal control group, the other groups were lightly anesthetized with isoflurane, and a 20 mg/ml LPS physiological saline solution was administered intranasally to the mice at 0.05 ml/mouse to induce the pneumonia model. Six hours after infection, the animals were sacrificed, dissected, and their lungs were removed and weighed to calculate the lung index (lung index=lung weight/body weight×100%).

[8] = tested on: Lipopolysaccharide (LPS)-induced pneumonia model in mice; experiment: Inflammatory factors in lung tissue of LPS-induced pneumonia mice (ELISA); type: in vivo, ICR mice; conditions: dosage 50 (mg/ml), i.v.
Method: as §2
(1) Sample Collection and Storage: Tissue homogenate samples: The lung tissues of mice were collected and weighed, including those from mice numbered 1, 2, 3, 6, 7, and 8 in each group. The tissues were stored at […] An ultrasonic cell disruptor was used to homogenize the tissues, followed by centrifugation at […] and 1000 r/min for 10 minutes using a low-temperature high-speed centrifuge. The supernatant was then collected, aliquoted, and stored at −80° C. for future use, avoiding repeated freeze-thaw cycles.
(2) The microwell plate, which had been equilibrated to room temperature, was removed from the sealed bag. Different concentrations of standards, experimental samples, or quality control samples were added to the corresponding wells, with 100 μL per well. The reaction wells were sealed with sealing tape and incubated at room temperature for 2 hours. The plate was then washed with wash buffer, repeating the operation four times. After the final wash, the plate was inverted and all residual liquid was patted dry on absorbent paper. Next, 100 μL of enzyme-labeled detection antibody was added to each microwell. The reaction wells were sealed again with sealing tape and incubated at room temperature for another 2 hours. The washing step was repeated as described above. Then, 100 μL of substrate solution was added to each microwell and incubated at room temperature for 30 minutes, protected from light. Within 30 minutes after adding 100 μL of stop solution to each microwell, the absorbance at 450 nm was measured using a microplate reader. The results were then calculated.

[9] = 42 mg/kg administration by gavage, first batch
[10] = 42 mg/kg administration by gavage

CC[C@H]1OC(=O)[C@H](C)[C@@H](O[C@H]2C[C@@](C)(OC)[C@@H](O)[C@H](C)O2)[C@H](C)[C@@H](O[C@@H]2O[C@H](C)C[C@H](N(C)C)[C@H]2O)[C@](C)(O)C[C@@H](C)CN(C)[C@H](C)[C@@H](O)[C@]1(C)O [Azithromycin, azithromycin, reference compound]
First Batch Inhibition Rate [1, 9]: 65.93 | First Batch Lung Index [1, 9]: 0.77 ± 0.05 | Second Batch Inhibition Rate [1, 10]: 98.72 | Second Batch Lung Index [1, 10]: 0.62 ± 0.09 | Second Batch Inhibition Rate ([1]; injection administration): 98.26 | Second Batch Lung Index ([1]; injection administration): 0.62 ± 0.06 | Alveolitis Lesion Degree [2]: 59.70 | Bronchial Damage [2]: 54.80 | Histological Damage Degree [2]: 2.43 ± 0.32 | Interstitial Inflammatory Cell Infiltration [2]: 58.80 | Inflammatory Factor Levels in Lung Tissue IL-1β [3]: 144.98 ± 15.93 pg/mL | Inflammatory Factor Levels in Lung Tissue IL-6 [3]: 85.26 ± 25.59 pg/mL | Inflammatory Factor Levels in Lung Tissue TNF-α [3]: 345.86 ± 53.85 pg/mL

CCN(CC)CCCC(C)Nc1ccnc2cc(Cl)ccc12 (stereo not drawn) [Chloroquine, Chloroquine Phosphate, reference compound]
Inhibition Rate (lung index) [4]: 96.56% | Lung Index [4]: 0.73 ± 0.11 g lung weight × 100 g/body weight | Inhibition Rate (lung index) [5]: 42.72% | Lung Index [5]: 0.80 ± 0.05 g lung weight × 100 g/body weight

NC(=O)c1ncn([C@@H]2O[C@H](CO)[C@@H](O)[C@H]2O)n1 [Ribavirin, reference compound]
Inhibition Rate (viral load) [6]: 69.54% | Viral Load in lung tissue [6]: 17063.48 ± 16203.78 copies/ng

CC(C)(C)C(=O)Oc1ccc(S(=O)(=O)Nc2ccccc2C(=O)NCC(=O)O)cc1 [Sivelestat Sodium, reference compound]
Inhibition Rate (lung index) [7]: 85.50 | Lung Index ([7]; 6 h after LPS): 0.86 ± 0.07 g/100 g body weight | Inflammatory Factor Levels in Lung Tissue IL-6 [8]: 15.79 ± 2.08 pg/mL | Inflammatory Factor Levels in Lung Tissue IL-10 [8]: 36.11 ± 4.87 pg/mL | Inflammatory Factor Levels in Lung Tissue TNF-α [8]: 98.88 ± 11.21 pg/mL
